Results published in patent US9434687B2, “Detection of synthetic cannabinoids” (priority 2011, dated 2016).
Read-outs that look alike come from different tables or passages of the source.

Legend:
Type in all cases: binding, sheep
[1] = test system: IgG fraction of antiserum raised to Immunogen I
Outline: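 Plates were coated with the IgG fraction of sheep antiserum raised to Immunogen I and incubated with standards (JWH-018, 0-40 ng/ml) plus hapten-HRP conjugate for 1 h at 25° C. Detection used TMB, read at 450 nm. IC50 was taken from a 4-parameter fit as the concentration giving half the zero-standard OD.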

[2] = test system: IgG fraction of antiserum raised to Immunogen II; assay: Competitive ELISA, antibody RS1833B12 to Immunogen II, tracer ESC4555 (Example 36)
[3] = test system: IgG fraction of antiserum raised to Immunogen IV
[4] = test system: IgG fraction of antiserum raised to Immunogen VIII
[5] = test system: IgG fraction of antiserum raised to Immunogen VII; conditions: Antibody to Immunogen VII; cross-reactants at 100 ng/ml; 1000 ng/ml; standard JWH-015
[6] = Antibody to Immunogen I, cross-reactants at 100 ng/ml, 1000 ng/ml, standard JWH-018
[7] = Antibody to Immunogen II, cross-reactants at 100 ng/ml, 1000 ng/ml, standard JWH-018
[8] = Antibody to Immunogen IV, cross-reactants at 100 ng/ml, 1000 ng/ml, standard JWH-018
[9] = Antibody to Immunogen VIII, cross-reactants at 100 ng/ml, 1000 ng/ml, standard JWH-018
[10] = Table 7 standard curve, standard concentration which produces 50% B/B0

Compound: CCCCCn1cc(C(=O)c2cccc3ccccc23)c2c(O)cccc21 [4-OH JWH-018, JWH-018 4-hydroxyindole metabolite]
- % B/B0 [1, 6]: 46.39%
- % B/B0 [2, 7]: 29.49%
- % B/B0 [3, 8]: 20.42%
- % B/B0 [4, 9]: 16.72%
- % B/B0 [5]: 89.96%

Compound: CCCCCn1cc(C(=O)c2cccc3ccccc23)c2cc(O)ccc21 [5-OH JWH-018, JWH-018 5-hydroxyindole metabolite]
- % B/B0 [1, 6]: 11.79%
- % B/B0 [2, 7]: 12.14%
- % B/B0 [3, 8]: 78.56%
- % B/B0 [4, 9]: 87.67%
- % B/B0 [5]: 85.76%

Compound: CCCCCn1cc(C(=O)c2cccc3ccccc23)c2ccc(O)cc21 [6-OH JWH-018, JWH-018 6-hydroxyindole metabolite]
- % B/B0 [1, 6]: 8.07%
- % B/B0 [2, 7]: 24.39%
- % B/B0 [3, 8]: 51.00%
- % B/B0 [4, 9]: 89.86%
- % B/B0 [5]: 68.17%

Compound: O=C(c1cccc2ccccc12)c1cn(CCCCCF)c2ccccc12 [AM-2201, 1-(5-Fluoropentyl)indol-3-yl (1-naphthyl) methanone]
- % B/B0 [1, 6]: 3.72%
- % B/B0 [2, 7]: 11.72%
- % B/B0 [3, 8]: 6.20%
- % B/B0 [4, 9]: 16.74%
- % B/B0 [5]: 55.28%

Compound: O=C(c1cccc2ccccc12)c1cn(CCCCCO)c2ccccc12 [JWH-018 N-(5-hydroxypentyl) metabolite]
- % B/B0 [1, 6]: 3.50%
- % B/B0 [2, 7]: 53.38%
- % B/B0 [3, 8]: 78.42%
- % B/B0 [4, 9]: 57.37%
- % B/B0 [5]: 53.32%

Compound: O=C(O)CCCCn1cc(C(=O)c2cccc3ccccc23)c2ccccc21 [JWH-018 N-pentanoic acid metabolite]
- % B/B0 [1, 6]: 4.51%
- % B/B0 [2, 7]: 85.61%
- % B/B0 [3, 8]: 99.89%
- % B/B0 [4, 9]: 100.31%
- % B/B0 [5]: 53.02%

Compound: CCCCCn1cc(C(=O)c2cccc3ccccc23)c2ccccc21 [JWH-018]
- % B/B0 [1, 6]: 5.19%
- % B/B0 ([1]; JWH-018 0.625 ng/ml): 77%
- % B/B0 ([1]; JWH-018 1.25 ng/ml): 62%
- % B/B0 ([1]; JWH-018 2.5 ng/ml): 44%
- % B/B0 ([1]; JWH-018 5 ng/ml): 31%
- % B/B0 ([1]; JWH-018 10 ng/ml): 20%
- % B/B0 ([1]; JWH-018 20 ng/ml): 14%
- % B/B0 ([1]; JWH-018 40 ng/ml): 9%
- IC50 [1, 10]: 2.016 ng/mL
- % B/B0 [2, 7]: 9.29%
- % B/B0 ([2]; JWH-018 0.625 ng/ml): 68%
- % B/B0 ([2]; JWH-018 1.25 ng/ml): 53%
- % B/B0 ([2]; JWH-018 2.5 ng/ml): 34%
- % B/B0 ([2]; JWH-018 5 ng/ml): 25%
- % B/B0 ([2]; JWH-018 10 ng/ml): 17%
- % B/B0 ([2]; JWH-018 20 ng/ml): 13%
- % B/B0 ([2]; JWH-018 40 ng/ml): 10%
- IC50 [2, 10]: 1.333 ng/mL
- % B/B0 [3, 8]: 6.80%
- % B/B0 ([3]; JWH-018 1.25 ng/ml): 87%
- % B/B0 ([3]; JWH-018 2.5 ng/ml): 68%
- % B/B0 ([3]; JWH-018 5 ng/ml): 42%
- % B/B0 ([3]; JWH-018 10 ng/ml): 26%
- % B/B0 ([3]; JWH-018 20 ng/ml): 16%
- % B/B0 ([3]; JWH-018 40 ng/ml): 10%
- % B/B0 ([3]; JWH-018 80 ng/ml): 7%
- IC50 ([3]; Table 8 standard curve, standard concentration which produces 50% B/B0): 4.133 ng/mL
- % B/B0 [4, 9]: 17.66%
- % B/B0 ([4]; JWH-018 1 ng/ml): 79%
- % B/B0 ([4]; JWH-018 3 ng/ml): 63%
- % B/B0 ([4]; JWH-018 5 ng/ml): 51%
- % B/B0 ([4]; JWH-018 10 ng/ml): 40%
- % B/B0 ([4]; JWH-018 20 ng/ml): 29%
- % B/B0 ([4]; JWH-018 40 ng/ml): 22%
- % B/B0 ([4]; JWH-018 80 ng/ml): 16%
- IC50 ([4]; Table 9 standard curve, standard concentration which produces 50% B/B0): 5.230 ng/mL
- % B/B0 [5]: 67.66%

Compound: CCCCn1cc(C(=O)c2cccc3ccccc23)c2ccccc21 [JWH-073]
- % B/B0 [1, 6]: 3.56%
- % B/B0 [2, 7]: 15.24%
- % B/B0 [3, 8]: 13.63%
- % B/B0 [4, 9]: 25.50%
- % B/B0 [5]: 58.34%

Compound: O=C(c1cccc2ccccc12)c1cn(CCN2CCOCC2)c2ccccc12 [JWH-200]
- % B/B0 [1, 6]: 3.51%
- % B/B0 [2, 7]: 54.02%
- % B/B0 [3, 8]: 77.08%
- % B/B0 [4, 9]: 98.81%
- % B/B0 [5]: 42.85%

Compound: CCCCCn1cc(C(=O)c2ccc(Cl)c3ccccc23)c2ccccc21 [JWH-398]
- % B/B0 [1, 6]: 60.31%
- % B/B0 [2, 7]: 30.31%
- % B/B0 [3, 8]: 6.00%
- % B/B0 [4, 9]: 18.66%
- % B/B0 [5]: 94.47%

Compound: O=C(c1cccc2ccccc12)c1c[nH]c2ccccc12 [N-desalkyl JWH-018, 3-(1-naphthoyl)-1H-Indole]
- % B/B0 [1, 6]: 15.63%
- % B/B0 [2, 7]: 99.18%
- % B/B0 [3, 8]: 95.55%
- % B/B0 [4, 9]: 90.49%
- % B/B0 [5]: 80.08%
